The results in this text go back to ChEMBL document CHEMBL1142693, “Design, synthesis, and in vitro evaluation of dipeptide-based antibody minor groove binder conjugates” (J Med Chem, 2005).

The test system of experiment [1] is CAKI-1. The experiment in a line: Inhibitory concentration againstHuman Caki-1 Renal CellCarcinoma Cell Lines (CD70+) at 96th hour; n=1. The note with it: Homo sapiens. The experiment is classed as functional, cell-based.
The next experiment concerns NCI-H69. In words: Inhibitory concentration againstHuman cell lung carcinoma cell line NCI-H69; n=3. The format is functional, cell-based, Homo sapiens.
The test system of experiment [2] is CAKI-1. In words: Inhibitory concentration againstHuman Caki-1 Renal CellCarcinoma Cell Lines (CD70+) at 4th hour; n=1. The conditions noted are these: Homo sapiens. The format is functional, cell-based.
Experiment [3] in a line: Inhibitory concentration againstHuman Karpas 299 Anaplastic Large Cell Lymphoma (CD30+) at 4th hour; n=1. The experiment is classed as functional, Homo sapiens.
Experiment [4] in a line: Inhibitory concentration againstHuman Karpas 299 Anaplastic Large Cell Lymphoma (CD30+) at 96th hour; n=9. The format is functional, Homo sapiens.
Experiment [5] is described as follows: Inhibitory concentration againstHuman cell lung carcinoma cell line NCI-H69/LX4; n=3. The format is functional, cell-based, Homo sapiens.
A short description of experiment [6]: Inhibitory concentration againstHuman Karpas 299 Anaplastic Large Cell Lymphoma (CD30+) at 96th hour; n=1. The format is functional, Homo sapiens.
In experiment [7] the test system is CAKI-1. In words: Inhibitory concentration againstHuman Caki-1 Renal CellCarcinoma Cell Lines (CD70+) at 96th hour; n=14. The format is functional, cell-based. The conditions noted are these: Homo sapiens.
A short description of experiment [8]: Inhibitory concentration againstHuman Karpas 299 Anaplastic Large Cell Lymphoma (CD30+) at 96th hour; n=39. The format is functional, Homo sapiens.

Turning to `COc1ccc(/C=C/C(=O)N2CC(CCl)c3c2cc(N)c2ccccc32)cc1` (stereo not given), the IC50 (usually the concentration needed to halve the response being measured) with CAKI-1 [1] was found to be 0.68 nM; in the experiment on NCI-H69 (Homo sapiens, NCI-H69), 0.87 nM; with CAKI-1 [2] it was 0.59 nM; in experiment [3], 0.34 nM; in experiment [4], 1.17 nM; in experiment [5], 2.87 nM.
`COc1cc2c(c(OC)c1OC)NC(C(=O)N1CC(CCl)c3c1cc(O)c1ncccc31)C2` (stereo not given): the IC50 in the experiment on CAKI-1 [1] came to 0.45 nM; in the experiment on CAKI-1 [2], 0.55 nM; in experiment [6], 0.18 nM; in [3], 0.28 nM.
`COc1ccc(/C=C/C(=O)N2CC(CCl)c3c2cc(NC(=O)C(CCCCN)NC(=O)C(NC(=O)CCOCCOCCOCCOCCNC(=O)CBr)C(C)C)c2ccccc32)cc1` (stereo not given): the IC50 in the experiment on NCI-H69 (Homo sapiens, NCI-H69) was 13.4 nM; in experiment [5], 20.7 nM.
For the molecule `COc1cccc2c1C(=O)c1c(O)c3c(c(O)c1C2=O)C[C@@](O)(C(=O)CO)C[C@@H]3O[C@H]1C[C@H](N)[C@H](O)[C@H](C)O1` [DOXORUBICIN], the IC50 came to 11.3 nM in the experiment with NCI-H69 (Homo sapiens, NCI-H69) and 1800 nM in experiment [5].
For `CO[C@@]12[C@H](COC(N)=O)C3=C(C(=O)C(C)=C(N)C3=O)N1C[C@@H]1N[C@@H]12` [MITOMYCIN], the IC50 in the experiment with CAKI-1 [7] was 40 nM; in the experiment with CAKI-1 [2], 251 nM; in experiment [3], 525 nM; in experiment [8], 133 nM.
As for CISPLATIN, the IC50 with NCI-H69 (nci-h69) turned out to be 683 nM; in experiment [5], 2820 nM.
